Data: PMC9594487 (Cancer chemotherapy and pharmacology, 2017)

Legend:
[1] = system: patients with advanced solid tumors; test: Phase I 3+3 dose escalation: DLT, MTD and recommended dose; conditions: in vivo, iv
[2] = background statement, no reference given, cited from earlier work
[3] = single agent in a phase I trial; cited from earlier work

In the case of Cilengitide, the “recommended dose of cilengitide for subsequent study (recommended phase II dose)” value [1] is listed as 2000 mg, the route of clearance [2] is listed as “predominantly renally cleared” and the terminal half-life [2] is listed as 3 to 5 h. The minimum washout ([2]; estimated) was 24 h and the “maximum tolerated dose (MTD), single agent” value [3] was “not reached”.
